Drawing on patent US11872296B2, “Preservation compositions” (Conopco, Inc., priority 2018, dated 2024), this text covers ΣFIC synergy score for three compounds.

Assay [1] deals with Gram negative non-fermenting bacteria: Pseudomonas aeruginosa, Pseudomonas putida & Burkholderia cepacia. The assay can be described thus: Liquid broth checkerboard assay (MIC, ΣFIC synergy), Pool 1. It counts as cell-based. The conditions noted are these: tryptic soy broth, 30° C., 24 hours, ΣFIC<1 synergistic. The source says: (§1) The differing behaviours of inhibitory antimicrobials in isolation and mixtures have been widely explored using the concept of the Fractional Concentration and Fractional Inhibitory Concentration (FIC). See for instance JRW Lambert and R Lambert, J. Appl. Microbiol 95, 734 (2003); T. Jadavji, CG Prober and R Cheung, Antimicrobial Agents and Chemotherapy 26, 91 (1984), and WO 2004/006876. These parameters can be defined as follows:
(§2) FC (component a)=Concentration of component a tested in the mixture/MIC (component a tested as a single active)
(§3) FIC (component a)=MIC (component a tested in the mixture)/MIC (component a tested as a single active)
(§4) The interactions between antimicrobials can be additive, synergistic or possibly antagonistic depending on whether the efficacy of the combination is equivalent to, greater than or less than that obtained for the same total concentration of the individual components when tested alone.
(§5) These relationships can be expressed mathematically by summing the fractional MIC values for all the components present in the mixture to give the “fractional inhibitory index”: ΣFIC=FIC(component 1)+FIC(component 2) Such that: ΣFIC≥1 corresponds to additive or antagonistic activity ΣFIC<1 corresponds to synergistic activity
(§6) Liquid broth assays (MIC and checkerboard) were conducted to identify the minimum concentration(s) of individual and binary combinations of preservation chemicals. A modified methodology to ISO 20776-1:2006 was utilised for the screening as follows. Stock solutions of preservation chemicals and tryptic soy broth were inoculated with 1-5×10^6 microorganisms and incubated at 30° C. for 24 hours, after which optical densities at OD600nm were measured. […] Preservation chemicals were screened at a concentration range of 0.0156-2%.

In assay [2] the test system is Gram negative fermenting bacteria: Enterobacter gergoviae & Klebsiella species. Put plainly: Liquid broth checkerboard assay (MIC, ΣFIC synergy), Pool 2. The format is cell-based. The conditions noted are these: tryptic soy broth, 30° C., 24 hours, ΣFIC<1 synergistic.
Text: as §1, §2, §3, §4, §5, §6

Where [3] appears, read: binary combination with Citric Acid.
Setting [4] is: binary combination with Itaconic acid.

For `CCOc1cc(C=O)ccc1O` [Ethylvanillin], the ΣFIC synergy score in assay [1] (setting [3]) is 0.63; in assay [1] (setting [4]), 0.56; in assay [2] (setting [3]) it was 0.69; in assay [2] (setting [4]), 0.63.
As for `CCCCc1ccc(O)cc1` [4-n-butyl phenol], the ΣFIC synergy score was found to be 0.50 in assay [1] (setting [3]), 0.44 in assay [1] (setting [4]), 0.59 in assay [2] (setting [3]) and 0.50 in assay [2] (setting [4]).
As for `C=CCc1ccc(O)c(OC)c1` [Eugenol], the ΣFIC synergy score in assay [1] (setting [3]) stood at 0.75; in assay [1] (setting [4]), 0.38; in assay [2] (setting [3]), 0.53; in assay [2] (setting [4]), 0.38.
